According to patent publication US20150030642A1, “POLYMER MICRO-NEEDLE ARRAY CHIP, PREPARATION PROCESS AND USE THEREOF” (Technical Institute of Physics and Chemistry of the Chinese …, priority 2012, published 2015):

Tests used:
[1] = Journal of Pharmaceutical Sciences, 1998, 87, 922-925; cited from earlier work
[2] = test system: pigskin used for simulated human skin
Text: Freezing pigskin used for simulated human skin was thawed; sites of pesticide application were cleaned and disinfected after thawed;

Molecule | transdermal permeability speed, micro-needle versus traditional transdermal drug delivery [1] | penetration of skin [2]
O=C(O)CN(CC(=O)O)Cc1cc2c(cc1O)Oc1cc(O)c(CN(CC(=O)O)CC(=O)O)cc1C21OC(=O)c2ccccc21 [calcein] | increased by four orders of magnitude | –
bovine serum albumin | – | could penetrate the skin
